Four compounds from ChEMBL document CHEMBL1153172, “Oxo-bridged isomers of aza-trishomocubane sigma (sigma) receptor ligands: Synthesis, in vitro binding, and molecular modeling” (Bioorg Med Chem Lett, 2010) can be followed below.

The target of assay [1] is 5-hydroxytryptamine receptor 1E (Homo sapiens) (UniProt P28566). The assay can be described thus: Inhibition of 5HT1E receptor at 10 uM.
Assay [2] is described as follows: Inhibition of phencyclidine binding site of NMDA receptor at 10 uM.
Assay [3] has as its target 5-hydroxytryptamine receptor 2C (Homo sapiens) (UniProt P28335). The assay can be described thus: Inhibition of 5HT2C receptor at 10 uM.
Assay [4] has as its target D(1A) dopamine receptor (Homo sapiens) (UniProt P21728). Description: Inhibition of D1 receptor at 10 uM.
The target in assay [5] is 5-hydroxytryptamine receptor 2A (Homo sapiens) (UniProt P28223). Description: Inhibition of 5HT2A receptor at 10 uM.
For assay [6], the target named is Sigma non-opioid intracellular receptor 1 (Homo sapiens, UniProt Q99720). Description: Binding affinity to sigma 1 receptor.
Sigma non-opioid intracellular receptor 1, sequence (Q99720 whole entry): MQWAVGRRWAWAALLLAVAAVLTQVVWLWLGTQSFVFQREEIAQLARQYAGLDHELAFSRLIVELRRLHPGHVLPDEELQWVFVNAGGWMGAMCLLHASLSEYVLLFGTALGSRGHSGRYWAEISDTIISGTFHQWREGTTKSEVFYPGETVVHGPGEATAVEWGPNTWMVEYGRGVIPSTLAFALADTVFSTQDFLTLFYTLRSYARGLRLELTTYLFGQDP
For assay [7], the target named is Histamine H3 receptor (Homo sapiens) (UniProt Q9Y5N1). Description: Inhibition of histamine H3 receptor at 10 uM.
Assay [8] deals with Cannabinoid receptor 1 (Homo sapiens) (UniProt P21554). The assay can be described thus: Inhibition of CB1 receptor at 10 uM.
Assay [9] addresses 5-hydroxytryptamine receptor 2B (Homo sapiens) (UniProt P41595). The assay can be described thus: Inhibition of 5HT2B receptor at 10 uM.
For assay [10], the target named is Mu-type opioid receptor (Homo sapiens) (UniProt P35372). Description: Inhibition of mu opioid receptor at 10 uM.
Mu-type opioid receptor (Homo sapiens), sequence (P35372 whole entry): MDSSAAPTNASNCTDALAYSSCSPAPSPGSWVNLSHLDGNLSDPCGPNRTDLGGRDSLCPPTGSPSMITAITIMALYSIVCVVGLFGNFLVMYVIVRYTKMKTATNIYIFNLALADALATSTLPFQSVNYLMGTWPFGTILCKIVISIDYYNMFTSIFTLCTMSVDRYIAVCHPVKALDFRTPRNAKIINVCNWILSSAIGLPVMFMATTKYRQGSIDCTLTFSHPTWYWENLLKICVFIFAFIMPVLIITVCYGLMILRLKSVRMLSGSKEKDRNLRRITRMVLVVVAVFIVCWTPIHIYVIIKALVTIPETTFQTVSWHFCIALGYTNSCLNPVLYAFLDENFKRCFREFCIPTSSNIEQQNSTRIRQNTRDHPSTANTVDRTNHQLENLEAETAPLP
Assay [11] concerns the target Alpha-2B adrenergic receptor (Homo sapiens) (UniProt P18089). Description: Inhibition of Alpha2B adrenoceptor receptor at 10 uM.
Assay [12] concerns the target T1, Sodium-dependent dopamine transporter (Homo sapiens, UniProt Q01959). Description: Binding affinity to DAT.
In assay [13] the target is D(2) dopamine receptor (Homo sapiens) (UniProt P14416). The assay can be described thus: Inhibition of D2 receptor at 10 uM.
D(2) dopamine receptor (Homo sapiens), sequence (P14416 whole entry): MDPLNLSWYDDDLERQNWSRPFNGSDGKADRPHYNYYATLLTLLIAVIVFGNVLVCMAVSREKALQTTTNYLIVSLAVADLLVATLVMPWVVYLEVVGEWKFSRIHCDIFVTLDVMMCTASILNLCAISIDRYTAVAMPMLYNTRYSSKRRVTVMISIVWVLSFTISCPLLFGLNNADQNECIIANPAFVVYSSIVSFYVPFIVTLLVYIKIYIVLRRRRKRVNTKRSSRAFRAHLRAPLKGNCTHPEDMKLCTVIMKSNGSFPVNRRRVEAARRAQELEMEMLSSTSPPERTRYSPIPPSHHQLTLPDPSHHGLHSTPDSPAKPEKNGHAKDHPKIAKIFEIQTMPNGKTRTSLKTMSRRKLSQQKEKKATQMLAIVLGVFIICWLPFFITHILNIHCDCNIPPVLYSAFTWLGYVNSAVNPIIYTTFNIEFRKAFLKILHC
Assay [14] in a line: Inhibition of Ca2+ channel at 10 uM.
Assay [15] deals with Alpha-1A adrenergic receptor (Homo sapiens) (UniProt P35348). Description: Inhibition of Alpha1A adrenoceptor receptor at 10 uM.
In assay [16] the target is 5-hydroxytryptamine receptor 1D (Homo sapiens) (UniProt P28221). The assay can be described thus: Inhibition of 5HT1D receptor at 10 uM.
Assay [17] has as its target Delta-type opioid receptor (Homo sapiens) (UniProt P41143). Description: Inhibition of Delta opioid receptor at 10 uM.
For assay [18], the target named is 5-hydroxytryptamine receptor 4 (Homo sapiens) (UniProt Q13639). The assay can be described thus: Inhibition of 5HT4 receptor at 10 uM.
Assay [19] concerns the target 5-hydroxytryptamine receptor 3A (Homo sapiens) (UniProt P46098). The assay can be described thus: Inhibition of 5HT3 receptor at 10 uM.
The target in assay [20] is 5-hydroxytryptamine receptor 1A (Homo sapiens, UniProt P08908). Description: Binding affinity to 5HT1A receptor.
In assay [21] the target is Cannabinoid receptor 2 (Homo sapiens) (UniProt P34972). Description: Inhibition of CB2 receptor at 10 uM.
Cannabinoid receptor 2 (Homo sapiens), sequence (P34972 whole entry): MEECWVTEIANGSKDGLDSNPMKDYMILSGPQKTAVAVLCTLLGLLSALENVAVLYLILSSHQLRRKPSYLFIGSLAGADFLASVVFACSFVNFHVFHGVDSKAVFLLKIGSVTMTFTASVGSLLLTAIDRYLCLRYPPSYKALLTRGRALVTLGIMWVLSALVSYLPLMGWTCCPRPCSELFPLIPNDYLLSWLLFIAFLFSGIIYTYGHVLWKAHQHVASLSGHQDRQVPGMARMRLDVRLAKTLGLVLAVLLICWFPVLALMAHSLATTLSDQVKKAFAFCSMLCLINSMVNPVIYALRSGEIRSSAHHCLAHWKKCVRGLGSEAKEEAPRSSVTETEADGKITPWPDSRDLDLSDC
The target in assay [22] is Beta-2 adrenergic receptor (Homo sapiens) (UniProt P07550). Description: Inhibition of beta2 adrenoceptor receptor at 10 uM.
Beta-2 adrenergic receptor (Homo sapiens), sequence (P07550 whole entry, looked up): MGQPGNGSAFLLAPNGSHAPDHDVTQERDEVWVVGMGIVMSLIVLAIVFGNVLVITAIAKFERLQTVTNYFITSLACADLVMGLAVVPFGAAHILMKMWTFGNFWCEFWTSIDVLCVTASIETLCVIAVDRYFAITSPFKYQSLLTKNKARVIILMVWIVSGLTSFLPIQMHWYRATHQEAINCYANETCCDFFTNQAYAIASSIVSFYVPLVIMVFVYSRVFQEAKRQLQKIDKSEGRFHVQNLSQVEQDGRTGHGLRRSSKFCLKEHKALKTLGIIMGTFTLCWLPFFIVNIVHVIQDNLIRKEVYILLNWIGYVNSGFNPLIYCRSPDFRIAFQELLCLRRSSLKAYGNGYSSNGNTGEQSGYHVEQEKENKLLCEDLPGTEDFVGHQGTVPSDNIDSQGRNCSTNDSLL
Assay [23] deals with T2, Alpha-2C adrenergic receptor (Homo sapiens, UniProt P18825).
T2 sequence (P18825 whole entry): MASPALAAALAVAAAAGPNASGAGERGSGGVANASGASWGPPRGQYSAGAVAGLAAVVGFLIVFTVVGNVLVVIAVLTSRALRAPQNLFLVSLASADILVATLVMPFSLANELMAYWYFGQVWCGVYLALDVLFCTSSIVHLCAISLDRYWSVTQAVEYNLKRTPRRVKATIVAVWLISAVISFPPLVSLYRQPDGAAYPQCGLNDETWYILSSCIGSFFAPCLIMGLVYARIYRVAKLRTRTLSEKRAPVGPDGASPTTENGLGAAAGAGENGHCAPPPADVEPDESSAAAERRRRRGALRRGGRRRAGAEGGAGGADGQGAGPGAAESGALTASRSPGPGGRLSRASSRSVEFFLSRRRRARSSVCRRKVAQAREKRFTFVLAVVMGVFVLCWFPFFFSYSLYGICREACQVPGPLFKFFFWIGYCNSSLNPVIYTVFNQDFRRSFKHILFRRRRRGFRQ
The assay can be described thus: (§1) Binding affinity to Alpha2C adrenoceptor receptor.

Assay [24] deals with Histamine H2 receptor (Homo sapiens) (UniProt P25021). The assay can be described thus: Inhibition of histamine H2 receptor at 10 uM.
The target of assay [25] is Histamine H4 receptor (Homo sapiens) (UniProt Q9H3N8). Description: Inhibition of histamine H4 receptor at 10 uM.
Histamine H4 receptor (Homo sapiens), sequence (Q9H3N8 whole entry): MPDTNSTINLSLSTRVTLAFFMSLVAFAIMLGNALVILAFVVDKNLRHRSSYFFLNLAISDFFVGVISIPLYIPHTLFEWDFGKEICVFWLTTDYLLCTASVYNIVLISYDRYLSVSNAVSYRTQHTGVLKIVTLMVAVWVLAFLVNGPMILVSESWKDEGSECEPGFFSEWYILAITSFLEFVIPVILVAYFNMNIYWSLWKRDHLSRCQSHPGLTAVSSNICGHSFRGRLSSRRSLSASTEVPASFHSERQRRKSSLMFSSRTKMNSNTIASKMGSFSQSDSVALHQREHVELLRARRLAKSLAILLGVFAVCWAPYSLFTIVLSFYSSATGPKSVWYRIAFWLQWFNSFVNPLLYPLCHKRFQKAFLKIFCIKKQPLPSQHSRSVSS
Assay [26] concerns the target Beta-1 adrenergic receptor (Homo sapiens) (UniProt P08588). Description: Inhibition of beta-1 adrenoceptor receptor at 10 uM.
Assay [27] is described as follows: Inhibition of 5HT receptor at 10 uM.
The target in assay [28] is 5-hydroxytryptamine receptor 1B (Homo sapiens) (UniProt P28222). The assay can be described thus: Inhibition of 5HT1B receptor at 10 uM.
The nature of assay [29]: Binding affinity to sigma 2 receptor.
In assay [30] the target is Alpha-2A adrenergic receptor (Homo sapiens) (UniProt P08913). Description: Inhibition of Alpha2A adrenoceptor receptor at 10 uM.
Alpha-2A adrenergic receptor (Homo sapiens), sequence (P08913 whole entry): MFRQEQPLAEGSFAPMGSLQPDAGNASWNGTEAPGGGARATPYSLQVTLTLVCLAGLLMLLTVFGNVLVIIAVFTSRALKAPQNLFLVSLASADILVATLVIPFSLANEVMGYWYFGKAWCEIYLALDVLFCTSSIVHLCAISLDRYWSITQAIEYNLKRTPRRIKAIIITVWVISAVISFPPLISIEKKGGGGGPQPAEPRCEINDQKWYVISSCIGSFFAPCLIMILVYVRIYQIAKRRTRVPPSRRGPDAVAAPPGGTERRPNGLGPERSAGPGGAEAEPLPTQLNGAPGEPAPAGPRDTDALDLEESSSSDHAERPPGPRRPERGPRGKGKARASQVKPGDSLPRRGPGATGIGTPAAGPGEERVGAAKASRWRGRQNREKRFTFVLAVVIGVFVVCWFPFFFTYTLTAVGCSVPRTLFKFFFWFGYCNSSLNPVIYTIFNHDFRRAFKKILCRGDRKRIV
For assay [31], the target named is 5-hydroxytryptamine receptor 6 (Homo sapiens) (UniProt P50406). The assay can be described thus: Inhibition of 5HT6 receptor at 10 uM.
The target in assay [32] is Histamine H1 receptor (Homo sapiens) (UniProt P35367). The assay can be described thus: Inhibition of histamine H1 receptor at 10 uM.
Assay [33] concerns the target Kappa-type opioid receptor (Homo sapiens) (UniProt P41145). The assay can be described thus: Inhibition of Kappa opioid receptor at 10 uM.
In assay [34] the target is T3, Sodium-dependent noradrenaline transporter (Homo sapiens, UniProt P23975). The assay can be described thus: Binding affinity to NET.
For assay [35], the target named is T2, Alpha-2C adrenergic receptor. Described as §1. This is another data set of the same source.
Assay [36] deals with 5-hydroxytryptamine receptor 5A (Homo sapiens) (UniProt P47898). The assay can be described thus: Inhibition of 5HT5A receptor at 10 uM.
In assay [37] the target is 5-hydroxytryptamine receptor 7 (Homo sapiens) (UniProt P34969). Description: Inhibition of 5HT7 receptor at 10 uM.
In assay [38] the target is Alpha-1B adrenergic receptor (Homo sapiens) (UniProt P35368). Description: Inhibition of Alpha1B adrenoceptor receptor at 10 uM.
Assay [39] can be described thus: Selectivity, ratio of Ki for sigma 1 to Ki for sigma 2.
Assay [40] addresses T4, Alpha-2C adrenergic receptor (Homo sapiens) (UniProt P18825).
T4 sequence (whole entry): T2 sequence (P18825 whole entry)
The assay can be described thus: Inhibition of Alpha2C adrenoceptor receptor at 10 uM.

In assay [41] the target is T1, Sodium-dependent dopamine transporter. The assay can be described thus: Inhibition of DAT at 10 uM.
Assay [42] addresses 5-hydroxytryptamine receptor 1A (Homo sapiens) (UniProt P08908). Description: Inhibition of 5HT1A receptor at 10 uM.
Assay [43] concerns the target T3, Sodium-dependent noradrenaline transporter. The assay can be described thus: Inhibition of NET at 10 uM.

T1 sequence (Q01959 whole entry): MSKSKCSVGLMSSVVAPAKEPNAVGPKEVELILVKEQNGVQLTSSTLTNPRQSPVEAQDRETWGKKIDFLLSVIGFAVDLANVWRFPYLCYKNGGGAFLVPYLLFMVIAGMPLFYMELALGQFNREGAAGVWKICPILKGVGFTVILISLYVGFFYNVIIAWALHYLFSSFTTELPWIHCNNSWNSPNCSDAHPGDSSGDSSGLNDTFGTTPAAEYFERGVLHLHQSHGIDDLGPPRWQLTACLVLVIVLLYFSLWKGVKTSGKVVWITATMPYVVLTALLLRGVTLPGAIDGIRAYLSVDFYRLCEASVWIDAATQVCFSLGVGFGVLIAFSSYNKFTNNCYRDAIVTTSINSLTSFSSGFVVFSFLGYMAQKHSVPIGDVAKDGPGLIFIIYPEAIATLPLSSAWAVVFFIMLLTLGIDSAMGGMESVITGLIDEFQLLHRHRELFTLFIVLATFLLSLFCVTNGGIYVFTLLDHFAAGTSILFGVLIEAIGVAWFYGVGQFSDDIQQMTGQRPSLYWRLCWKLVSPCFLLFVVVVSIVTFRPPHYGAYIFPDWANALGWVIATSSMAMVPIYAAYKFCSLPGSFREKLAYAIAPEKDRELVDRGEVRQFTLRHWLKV
Delta-type opioid receptor (Homo sapiens), sequence (P41143 whole entry): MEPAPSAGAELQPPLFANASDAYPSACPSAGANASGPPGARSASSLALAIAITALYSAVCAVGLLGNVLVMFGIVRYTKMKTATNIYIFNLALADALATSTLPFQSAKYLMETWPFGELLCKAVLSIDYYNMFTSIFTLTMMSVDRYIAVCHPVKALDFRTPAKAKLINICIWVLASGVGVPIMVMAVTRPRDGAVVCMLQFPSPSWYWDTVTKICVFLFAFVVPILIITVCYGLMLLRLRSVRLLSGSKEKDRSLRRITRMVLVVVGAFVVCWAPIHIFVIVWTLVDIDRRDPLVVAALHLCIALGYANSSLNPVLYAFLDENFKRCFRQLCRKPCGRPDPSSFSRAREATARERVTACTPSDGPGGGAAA
5-hydroxytryptamine receptor 1E (Homo sapiens), sequence (P28566 whole entry): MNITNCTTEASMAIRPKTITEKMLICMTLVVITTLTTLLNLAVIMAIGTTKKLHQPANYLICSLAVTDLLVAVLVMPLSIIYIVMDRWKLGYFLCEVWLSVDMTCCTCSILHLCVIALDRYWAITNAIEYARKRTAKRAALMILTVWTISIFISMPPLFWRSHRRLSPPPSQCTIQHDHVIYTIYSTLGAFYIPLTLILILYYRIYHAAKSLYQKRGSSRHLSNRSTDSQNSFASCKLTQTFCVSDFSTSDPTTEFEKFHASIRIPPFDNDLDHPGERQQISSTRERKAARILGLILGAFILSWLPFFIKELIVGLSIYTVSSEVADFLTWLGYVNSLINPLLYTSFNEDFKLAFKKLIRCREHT
Alpha-2B adrenergic receptor (Homo sapiens), sequence (P18089 whole entry): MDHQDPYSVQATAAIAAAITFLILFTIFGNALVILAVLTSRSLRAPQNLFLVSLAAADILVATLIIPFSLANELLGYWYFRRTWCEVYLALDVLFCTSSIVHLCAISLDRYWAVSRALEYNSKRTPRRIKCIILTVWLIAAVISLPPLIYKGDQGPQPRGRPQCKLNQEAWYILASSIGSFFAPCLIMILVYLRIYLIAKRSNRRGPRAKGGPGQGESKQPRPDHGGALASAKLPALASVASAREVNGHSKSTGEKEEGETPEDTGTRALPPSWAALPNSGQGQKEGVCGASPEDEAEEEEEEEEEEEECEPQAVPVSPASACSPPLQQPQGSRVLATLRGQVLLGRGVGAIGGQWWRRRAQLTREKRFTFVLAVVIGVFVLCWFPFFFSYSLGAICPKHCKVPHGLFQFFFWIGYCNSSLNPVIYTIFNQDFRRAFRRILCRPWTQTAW
D(1A) dopamine receptor (Homo sapiens), sequence (P21728 whole entry): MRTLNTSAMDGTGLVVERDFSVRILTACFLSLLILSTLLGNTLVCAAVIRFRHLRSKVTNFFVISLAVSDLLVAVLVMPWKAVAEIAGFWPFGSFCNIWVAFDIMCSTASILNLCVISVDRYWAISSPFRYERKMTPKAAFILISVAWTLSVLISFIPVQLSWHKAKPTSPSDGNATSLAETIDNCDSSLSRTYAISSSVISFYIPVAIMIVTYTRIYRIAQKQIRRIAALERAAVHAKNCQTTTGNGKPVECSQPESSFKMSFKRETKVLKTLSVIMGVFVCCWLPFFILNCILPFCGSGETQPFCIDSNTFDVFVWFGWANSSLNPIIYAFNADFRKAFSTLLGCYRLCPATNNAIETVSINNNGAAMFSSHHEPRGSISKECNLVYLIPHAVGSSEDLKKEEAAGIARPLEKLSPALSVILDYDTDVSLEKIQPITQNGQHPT

Turning to `Fc1cccc(CCNC23OC4C5C6CC(C7C6C4C72)C53)c1` (stereo not drawn), the inhibition in [1], in [2], in assay [3], in assay [4], in [5] and in [7] was less than 50% in each case. Moreover, the inhibition in [8], in assay [9], in assay [10], in [11], in [13] and in assay [14] was less than 50% throughout. Also, the inhibition in assay [15], in assay [16], in assay [17], in [18], in assay [19] and in assay [21] was less than 50% throughout. Besides, the inhibition in [22], in assay [24], in assay [25], in assay [26], in [27] and in assay [28] was less than 50% in each case. Also, the inhibition in assay [30], in assay [31], in [32], in assay [33], in assay [36] and in [37] was less than 50% throughout. Moreover, the inhibition (as a rule, the drop in the measured response relative to a control, in per cent) in assay [38] was less than 50%. The inhibition constant Ki (commonly the dissociation constant of the complex between target and ligand, obtained from inhibition or displacement) in assay [6] is 149 nM; in assay [12], 137 nM; in assay [20] it was greater than 10000 nM; in assay [23], 20 nM; in assay [29], 363 nM; in [34], greater than 10000 nM. This compound also came in with a Ki in assay [35] of 20 nM. In addition, the Ratio in assay [39] is 0.41.

`OC12C3C4CC5C6C4C1C6C(C53)N2Cc1cccc(F)c1` (stereo not drawn): the Ki was 153 nM in assay [6], greater than 10000 nM in [12], greater than 10000 nM in [23] and 31 nM in [29]. The inhibition in assay [40], in [41] and in [27] was less than 50% throughout. For the same compound, the Ratio in assay [39] was found to be 4.94.

In the case of `Fc1cccc(CNC23OC4C5C6CC(C7C6C4C72)C53)c1` (stereo not drawn), the inhibition in assay [1], in assay [2], in assay [3], in assay [4], in [5] and in assay [7] was less than 50% throughout. The inhibition in [8], in assay [9], in assay [40], in assay [10], in assay [41] and in [11] was less than 50% in each case. Also, the inhibition in [13], in assay [14], in [15], in assay [16], in assay [17] and in assay [42] was less than 50% each time. Also, the inhibition in [19], in [21], in assay [22], in [24], in assay [25] and in assay [26] was less than 50% in each case. The inhibition in [43], in assay [27], in assay [28], in assay [30], in assay [31] and in assay [32] was less than 50% in each case. Also, the inhibition in assay [33], in [36], in [37] and in [38] was less than 50% in each case. Besides, the Ki is 2280 nM in assay [6], greater than 10000 nM in [12] and 1640 nM in assay [29]. Besides, the Ratio in [39] came to 1.39.

`OC12C3C4CC5C6C4C1C6C(C53)N2CCc1cccc(F)c1` (stereo not drawn): the Ki is 12 nM in assay [6], greater than 10000 nM in [12], greater than 10000 nM in assay [23] and 48 nM in assay [29]. In addition, the inhibition in assay [40], in assay [41] and in [27] was less than 50% throughout. The Ratio in assay [39] was determined as 0.25.
